Laboratory results reported in patent publication US5190961A, “Thiourea derivatives and antimicrobial agent and antulcer agent containing the same” (Terumo Kabushiki Kaisha, priority 1990, dated 1993).
Converted amounts (≈) assume the structure as drawn.

How the values were obtained:
ethanol peptic ulcer = experiment: Inhibitory action against ethanol peptic ulcer; format: in vivo; conditions: Rattus norvegicus; SD male rats, 32 mg/kg oral, 1 hour before ethanol 0.5 ml/100 g; read-out: Inhibitory action against ethanol peptic ulcer, Percent inhibition of p.u. formation
Protocol: (2) Inhibitory action against ethanol peptic ulcer
SD male rats (weighing 200-300 g) were fasted for 24 hours before oral administration of a thiourea derivative of the invention at a dose of 32 mg/kg bodyweight. One hour later, ethanol was orally given in a volume of 0.5 ml/100 g bodyweight. One hour after treating with ethanol, the rat was sacrificed with ether, and the stomach was excised and treated with formalin. Area (mm^2) of the lesions developed in the glandular stomach area was then measured. Results were expressed in sum of the lesions per animal which was referred to as peptic ulcer index.
(§1) It was confirmed that the thiourea derivatives of the invention not shown in the table also have a similar antiulcer activity.
Percent inhibition of the peptic ulcer formation (%) as shown in the table was calculated according to the same equation as mentioned above.

[1] = test system: peptic ulcer induced by water immersion restraint stress; experiment: Inhibitory action against the peptic ulcer induced by water immersion restraint stress; format: in vivo; conditions: Rattus norvegicus; SD male rats, 32 mg/kg oral, water immersion restraint stress 23° C., 7 hours; read-out: Inhibitory action against stress peptic ulcer, Percent inhibition of p.u. formation
Protocol: (1) Inhibitory action against the peptic ulcer induced by water immersion restraint stress
SD male rats (weighing 200-300 g) were fasted for 24 hours before oral administration of a thiourea derivative of the invention at a dose of 32 mg/kg bodyweight. One hour later, the animal was put in a stress cage and loaded with water immersion restraint stress in a water bath at 23° C. Seven hours after loading with the stress, the rate was sacrificed with ether, and the stomach was excised and treated with formalin. Area (mm^2 ) of the lesions developed in the glandular stomach area was then measured. Results were expressed in sum of the lesions per animal which was referred to as peptic ulcer index.
as §1
Percent inhibition of the peptic ulcer formation (%) as shown in the table was calculated according to the following equation: [formula]

Helicobacter pylori = experiment: Antimicrobial activity against Helicobacter pylori (MIC); format: cell-based, Helicobacter pylori strain NCTC 11916; conditions: NCTC11916, strain NCTC 11916, twofold dilution, 37° C., 3-5 days, O2 about 5%
Protocol: (3) Antimicrobial activity against Helicobacter pylori
Antimicrobial activity of the thiourea derivatives according to the invention against Helicobacter pylori (or Campylobacter pylori) was evaluated by employing strain NCTC 11916 as a Helicobacter test organism and determining MIC (minimum inhibitory concentration) for the strain with the thiourea derivative.
The Helicobacter pylori was pre-incubated in a plate medium for 3-5 days. The medium was prepared by dissolving 38 g of a Mueller-Hinton medium (manufactured by Difco) in an appropriate amount of distilled water, sterilizing the solution in an autoclave, adding to the solution 50 ml of a horse hemolysis solution (manufactured by Nippon Seibutu Zairyou Center: Horse defibrinized blood, hemolyzed by a lyophilization treatment) and 2 ml of Skirrow, a Campylobacter selective supplement (manufactured by OXOID) containing vancomycin (5 mg), trimethoprim (2.5 mg) and polymyxin B (1250 IU) per vial (2 ml), and further an appropriate amount of distilled water to a volume of 1L in total and expanding and solidifying the solution on a dish. These antibiotics were contained for inhibition of the growth of microorganism other than Helicobacter pylori. The Helicobacter pylori pre-incubated under slightly aerobic conditions (an O2 concentration of about 5%) at 37° C. for 3-5 days was suspended in a physiological saline solution in a concentration of approximately 10^8 organisms/ml. Approximately 10-20 μl of the suspension was inoculated on a medium for MIC measurement in cross streaks. […] The DMSO solution was formed by the twofold dilution method. As in the pre-incubation, the Helicobacter pylori was cultured under slightly aerobic conditions at 37° C. for 3-5 days. After completion of the culture, growth of the microoranisms on the streaks was visually determined. The minimum concentration of the thiourea derivative in which no growth was observed was taken as MIC.
It was confirmed that the thiourea derivatives of the invention not shown in the table also have a similar antimicrobial activity.

Structure (SMILES) | inhibition in vivo at 32 mg/kg (ethanol peptic ulcer) [%] | inhibition in vivo at 32 mg/kg [1] [%] | MIC (Helicobacter pylori) [µg/mL]
O=C(CCCNC(=S)NCc1ccco1)NCCCOc1cccc(CN2CCCCC2)c1 [Example 26, 1-[3-[N-[3-[3-(piperidinomethyl)phenoxy]propyl]carbamoyl]propyl]-3-furfurylthiourea] | 90.3 | 74.4 | 6.25 (≈ 13.2 µM)
Cc1ccccc1NC(=S)NCCCC(=O)NCCCOc1cccc(CN2CCCCC2)c1 [Example 10, 1-[3-[N-[3-[3-(piperidinomethyl)phenoxyl]propyl]carbamoyl]propyl]-3-(O-methylphenyl)thiourea] | 94.2 | 82.2 | 6.25 (≈ 12.9 µM)
O=C(CCCNC(=S)Nc1cccc2ccccc12)NCCCOc1cccc(CN2CCCCC2)c1 [Example 7, 1-[3-[N-[3-[3-(piperidinomethyl)phenoxy]-propyl]carbamoyl]propyl]-3-(1-naphthyl)thiourea] | 92 | 88.3 | 6.25 (≈ 12 µM)
COc1cccc(NC(=S)NCCCC(=O)NCCCOc2cccc(CN3CCCCC3)c2)c1 [Example 15, 1-[3-[N-[3-[3-(piperidinomethyl)phenoxy]propyl]carbamoyl]propyl]-3-(3-methoxyphenyl)thiourea] | 92.1 | 78.3 | 6.25 (≈ 12.5 µM)
CC(C)c1ccc(NC(=S)NCCCC(=O)NCCCOc2cccc(CN3CCCCC3)c2)cc1 [Example 13, 1-[3-[N-[3-[3-(piperidinomethyl)phenoxy]propyl]carbamoyl]propyl]-3-(p-isopropylphenyl)thiourea] | 90.2 | 77.3 | 6.25 (≈ 12.2 µM)
CNC(=S)NCCCC(=O)NCCCOc1cccc(CN2CCCCC2)c1 [Example 1, 1-[3-[N-[3-[3-(piperidinomethyl)phenoxy]propyl]carbamoyl]propyl]-3-methylthiourea] | 51.4 | 92.1 | 6.25 (≈ 15.4 µM)
COc1cccc(C)c1NC(=S)NCCCC(=O)NCCCOc1cccc(CN2CCCCC2)c1 [Example 19, 1-[3-[N-[3-[3-(piperidinomethyl)phenoxy]propyl]carbamoyl]propyl]-3-(2-methoxy-6-methylphenyl)thiourea] | 94.6 | 90.1 | 6.25 (≈ 12.2 µM)
O=C(CCCNC(=S)NCCc1ccccc1)NCCCOc1cccc(CN2CCCCC2)c1 [Example 6] | 84.4 | 76.9 | 6.25 (≈ 12.6 µM)
Cc1cc(C)c(NC(=S)NCCCC(=O)NCCCOc2cccc(CN3CCCCC3)c2)c(C)c1 [Example 12, 1-[3-[N-[3-[3-(piperidinomethyl)phenoxy]propyl]carbamoyl]propyl]-3-(2,4,6-trimethylphenyl)thiourea] | 80.2 | 77.1 | 6.25 (≈ 12.2 µM)
O=C(CCCNC(=S)Nc1ccc(Cl)cc1)NCCCOc1cccc(CN2CCCCC2)c1 [Example 4, 1-[3-[N-[3-[3-(piperidinomethyl)phenoxy]propyl]carbamoyl]propyl]-3-(p-chlorophenyl)thiourea] | 78.2 | 74.6 | 6.25 (≈ 12.4 µM)
O=C(CCCCCNC(=S)Nc1ccccc1)NCCCOc1cccc(CN2CCCCC2)c1 [Example 28, 1-[5-[N-[3-[3-(piperidinomethyl)phenoxy]propyl]carbamoyl]pentyl]-3-phenylthiourea] | 75.5 | 73.2 | 12.5 (≈ 25.2 µM)
COc1ccc(NC(=S)NCCCC(=O)NCCCOc2cccc(CN3CCCCC3)c2)cn1 [Example 25, 1-[3-[N-[3-[3-(piperidinomethyl)phenoxy]propyl]carbamoyl]propyl]-3-[3-(6-methoxypyridyl)]thiourea] | 72.5 | 65.6 | 6.25 (≈ 12.5 µM)
O=C(CCCNC(=S)NC1CCCCC1)NCCCOc1cccc(CN2CCCCC2)c1 [Example 5, 1-[3-[N-[3-[3-(piperidinomethyl)phenoxy]propyl]carbamoyl]propyl]-3-cyclohexylthiourea] | 82.3 | 70.5 | 6.25 (≈ 13.2 µM)
CCCCNC(=S)NCCCC(=O)NCCCOc1cccc(CN2CCCCC2)c1 [Example 2] | 75.7 | 67.1 | 6.25 (≈ 13.9 µM)
COc1cc(NC(=S)NCCCC(=O)NCCCOc2cccc(CN3CCCCC3)c2)cc(OC)c1OC [Example 18, 1-[3-[N-[3-[3-(piperidinomethyl)phenoxy]propyl]carbamoyl]propyl]-3-(3,4,5-trimethoxyphenyl)thiourea] | 83.8 | 60.6 | 6.25 (≈ 11.2 µM)
CSc1ccccc1NC(=S)NCCCC(=O)NCCCOc1cccc(CN2CCCCC2)c1 [Example 21, 1-[3-[N-[3-[3-(piperidinomethyl)phenoxy]propyl]carbamoyl]propyl]-3-(2-methylthiophenyl)thiourea] | 81.1 | 85.5 | 6.25 (≈ 12.1 µM)
O=C(CCCNC(=S)Nc1cccnc1)NCCCOc1cccc(CN2CCCCC2)c1 [Example 8] | 65 | 82.2 | 12.5 (≈ 26.6 µM)
O=C(CCCNC(=S)Nc1ccccc1C(F)(F)F)NCCCOc1cccc(CN2CCCCC2)c1 [Example 22, 1-[3-[N-[3-[3-(piperidinomethyl)phenoxy]propyl]carbamoyl]propyl]-3-(2-trifluoromethylphenyl)thiourea] | 76.4 | 83.3 | 6.25 (≈ 11.6 µM)
O=C(CCCNC(=S)Nc1ccccc1[N+](=O)[O-])NCCCOc1cccc(CN2CCCCC2)c1 [Example 23, 1-[3-[N-[3-[3-(piperidinomethyl)phenoxy]propyl]carbamoyl]propyl]-3-(O-nitrophenyl)thiourea] | 72.3 | 76.4 | 6.25 (≈ 12.2 µM)
O=C(CCCNC(=S)NCc1cccs1)NCCCOc1cccc(CN2CCCCC2)c1 [Example 27, 1-[3-[N-[3-[3-(piperidinomethyl)phenoxy]propyl]carbamoyl]propyl]-3-(2-thienylmethyl)thiourea] | 88.2 | 72.5 | 6.25 (≈ 12.8 µM)
CCCCOc1ccccc1NC(=S)NCCCC(=O)NCCCOc1cccc(CN2CCCCC2)c1 [Example 16, 1-[3-[N-[3-[3-(piperidinomethyl)phenoxy]propyl]carbamoyl]propyl]-3-(O-n-buthoxyphenyl)thiourea] | 93.3 | 71.7 | 6.25 (≈ 11.6 µM)
COc1ccccc1NC(=S)NCCCC(=O)NCCCOc1cccc(CN2CCCCC2)c1 [Example 14, 1-[3-[N-[3-[3-(piperidinomethyl)phenoxy]propyl]-carbamoyl]propyl]-3-(O-methoxyphenyl)thiourea] | 94.3 | 91.2 | 6.25 (≈ 12.5 µM)
COCOc1ccccc1NC(=S)NCCCC(=O)NCCCOc1cccc(CN2CCCCC2)c1 [Example 24, 1-[3-[N-[3-[3-(piperidinomethyl)phenoxy]propyl]carbamoyl]propyl]-3-(2-methoxymethoxyphenyl)thiourea] | 70.3 | 60.3 | 12.5 (≈ 23.6 µM)
O=C(CCCNC(=S)Nc1ccccc1)NCCCOc1cccc(CN2CCCCC2)c1 [Example 3, 1-[3-[N-(3-[3-(piperidinomethyl)phenoxy]propyl]carbamoyl]propyl]-3-phenylthiourea] | 88.7 | 80.5 | 12.5 (≈ 26.7 µM)
